Assays:
Type in all cases: in vivo
[1] = system: Johnsongrass (Sorghum halepense, SORHA); assay: Pre-emerge greenhouse herbicide test, phytotoxicity rating; details: 1000 g ai/ha, 14 days after application, rating scale 0-100
Source text: (§1) A standard greenhouse herbicide activity screening system was used to evaluate the herbicidal efficacy and crop safety of these test compounds. Six broadleaf weed species including redroot pigweed (Amaranthus retroflexus, AMARE), velvetleaf (Abutilon theophrasti, ABUTH), sicklepod (Cassia obtusifolia, CASOB), ivyleaf morningglory (Ipomoea hederacea, IPOHE), lambsquarters (Chenopodium album, CHEAL) and common ragweed (Ambrosia artemisiifolia L., AMBEL) were used as test species. Four grass weed species including green foxtail (Setaria viridis, SETVI), barnyardgrass (Echinochloa crusgalli, ECHCG), Johnsongrass (Sorghum halepense, SORHA), and large crabgrass (Digitaria sanguinalis, DIGSA) were also used. In addition, three crop species, field corn (Zea mays L., var. Dekalb 535, CORN), soybean (Glycine max L., var. Pella 86, SOY), and upland rice (Oryza sp., var.Tebonnet, RICE) were included.
(§2) All plants were grown in 10 cm square plastic pots which were filled with a sandy loam soil mix. For preemerge tests, seeds were planted one day prior to application of the test compounds. Immediately after application, test units of the pre-emerge applications were watered at the soil surface to incorporate the test materials. Subsequently, these test units were bottom-watered.
(§3) All test compounds were dissolved in acetone and applied to the test units in a volume of 187 l/ha. Test materials were applied at rates ranging from 125 g ai/ha to 1000 g ai/ha using a track sprayer equipped with a TJ8001E even flow flat fan spray nozzle. Plants were arranged on a shelf so that the top of the canopy (post-emerge) or top of the soil surface (pre-emerge) was 40-45 cm below the nozzle. Pressurized air was used to force the test solution through the nozzle as it was mechanically advanced (via electrically driven chain drive) over the top of all test plants/pots. This application simulates a typical commercial field herbicide application.
(§4) At 14 days after application of the test materials, phytotoxicity ratings were recorded. A rating scale of 0-100 was used as previously described in Research Methods in Weed Science, 2nd edition, B. Truelove, Ed., Southern Weed Science Society, Auburn University, Auburn, Ala., 1977. Briefly, “0” corresponds to no damage and “100” corresponds to complete death of all plants in the test unit. This scale was used both to determine efficacy against weed species and damage to crop species. Herbicide activity data for various compounds of this invention, which are shown by compound number in Tables 1-9, are shown in Tables 13 and 14.

[2] = system: barnyardgrass (Echinochloa crusgalli, ECHCG); assay: as above; details: 1000 g ai/ha, 14 days after application, rating scale 0-100
Source text: as §1, §2, §3, §4

[3] = system: green foxtail (Setaria viridis, SETVI); assay: as above; details: 1000 g ai/ha, 14 days after application, rating scale 0-100
Source text: as §1, §2, §3, §4

[4] = system: ivyleaf morningglory (Ipomoea hederacea, IPOHE); assay: as above; details: 1000 g ai/ha, 14 days after application, rating scale 0-100
Source text: as §1, §2, §3, §4

[5] = system: lambsquarters (Chenopodium album, CHEAL); assay: as above; details: 1000 g ai/ha, 14 days after application, rating scale 0-100
Source text: as §1, §2, §3, §4

[6] = system: large crabgrass (Digitaria sanguinalis, DIGSA); assay: as above; details: 1000 g ai/ha, 14 days after application, rating scale 0-100
Source text: as §1, §2, §3, §4

[7] = system: redroot pigweed (Amaranthus retroflexus, AMARE); assay: as above; details: 1000 g ai/ha, 14 days after application, rating scale 0-100
Source text: as §1, §2, §3, §4

[8] = system: sicklepod (Cassia obtusifolia, CASOB); assay: as above; details: 1000 g ai/ha, 14 days after application, rating scale 0-100
Source text: as §1, §2, §3, §4

[9] = system: velvetleaf (Abutilon theophrasti, ABUTH); assay: as above; details: 1000 g ai/ha, 14 days after application, rating scale 0-100
Source text: as §1, §2, §3, §4

[10] = system: field corn (Zea mays L., var. Dekalb 535, CORN); assay: Pre-emerge greenhouse test, crop damage rating; details: 1000 g ai/ha, 14 days after application, rating scale 0-100
Source text: as §1, §2, §3, §4

[11] = system: upland rice (Oryza sp., var.Tebonnet, RICE); assay: Pre-emerge greenhouse test, crop damage rating; details: 1000 g ai/ha, 14 days after application, rating scale 0-100
Source text: as §1, §2, §3, §4

[12] = system: soybean (Glycine max L., var. Pella 86, SOY); assay: Pre-emerge greenhouse test, crop damage rating; details: 1000 g ai/ha, 14 days after application, rating scale 0-100
Source text: as §1, §2, §3, §4

[13] = system: Johnsongrass (Sorghum halepense, SORHA); assay: Post-emerge greenhouse herbicide test, phytotoxicity rating; details: 1000 g al/ha, 14 days after application
Source text: as §1, §3
(§5) In the post-emerge test, a commercial non-ionic surfactant was also included (0.25% v/v) to enhance wetting of the leaf surfaces Qf target plants at rates ranging from 63 g ai/ha to 1000 g ai/ha. For post-emerge tests, seeds were planted 8-21 days prior to the test to allow emergence and good foliage development prior to application of the test substances. At the time of the post-emerge application, plants of all species were usually at the 2-3 leaf stage of development. Post-emerge test units were always bottom-watered.
as §4

[14] = system: barnyardgrass (Echinochloa crusgalli, ECHCG); assay: as above; details: 1000 g al/ha, 14 days after application
Source text: as §1, §3, §5, §4

[15] = system: green foxtail (Setaria viridis, SETVI); assay: as above; details: 1000 g al/ha, 14 days after application
Source text: as §1, §3, §5, §4

[16] = system: ivyleaf morningglory (Ipomoea hederacea, IPOHE); assay: as above; details: 1000 g al/ha, 14 days after application
Source text: as §1, §3, §5, §4

[17] = system: lambsquarters (Chenopodium album, CHEAL); assay: as above; details: 1000 g al/ha, 14 days after application
Source text: as §1, §3, §5, §4

[18] = system: large crabgrass (Digitaria sanguinalis, DIGSA); assay: as above; details: 1000 g al/ha, 14 days after application
Source text: as §1, §3, §5, §4

[19] = system: redroot pigweed (Amaranthus retroflexus, AMARE); assay: as above; details: 1000 g al/ha, 14 days after application
Source text: as §1, §3, §5, §4

[20] = system: sicklepod (Cassia obtusifolia, CASOB); assay: as above; details: 1000 g al/ha, 14 days after application
Source text: as §1, §3, §5, §4

[21] = system: velvetleaf (Abutilon theophrasti, ABUTH); assay: as above; details: 1000 g al/ha, 14 days after application
Source text: as §1, §3, §5, §4

[22] = system: field corn (Zea mays L., var. Dekalb 535, CORN); assay: Post-emerge greenhouse test, crop damage rating; details: 1000 g al/ha, 14 days after application
Source text: as §1, §3, §5, §4

[23] = system: upland rice (Oryza sp., var.Tebonnet, RICE); assay: Post-emerge greenhouse test, crop damage rating; details: 1000 g al/ha, 14 days after application
Source text: as §1, §3, §5, §4

[24] = system: soybean (Glycine max L., var. Pella 86, SOY); assay: Post-emerge greenhouse test, crop damage rating; details: 1000 g al/ha, 14 days after application
Source text: as §1, §3, §5, §4

`CCOC(=O)C(C)Oc1ccc(Oc2cc(-n3c(=O)cc4n(c3=O)CCC4)c(F)cc2Cl)cc1` (stereo not drawn) [Compound 5-6] was tested, and the “phytotoxicity rating SORHA” value [1] was 50, the “phytotoxicity rating ECHCG” value [2] was 70 and the “phytotoxicity rating SETVI” value [3] was 100. The “phytotoxicity rating IPOHE” value [4] was 100, the “phytotoxicity rating CHEAL” value [5] was 100 and the “phytotoxicity rating DIGSA” value [6] was 70. The “phytotoxicity rating AMARE” value [7] was 100, the “phytotoxicity rating CASOB” value [8] was 40 and the “phytotoxicity rating ABUTH” value [9] was 100. For the same molecule, the “crop damage rating CORN” value [10] was 40, the “crop damage rating RICE” value [11] was 80 and the “crop damage rating SOY” value [12] was 60. For the same molecule, the “SORHA phytotoxicity rating (0-100)” value [13] was 95, the “ECHCG phytotoxicity rating (0-100)” value [14] was 95 and the “SETVI phytotoxicity rating (0-100)” value [15] was 50. For the same molecule, the “IPOHE phytotoxicity rating (0-100)” value [16] was 100, the “CHEAL phytotoxicity rating (0-100)” value [17] was 100 and the “DIGSA phytotoxicity rating (0-100)” value [18] was 40. For the same molecule, the “AMARE phytotoxicity rating (0-100)” value [19] was 90, the “CASOB phytotoxicity rating (0-100)” value [20] was 40 and the “ABUTH phytotoxicity rating (0-100)” value [21] was 100. For the same molecule, the “CORN crop damage rating (0-100)” value [22] was 80, the “RICE crop damage rating (0-100)” value [23] was 60 and the “SOY crop damage rating (0-100)” value [24] was 80.

With `O=c1cc2n(c(=O)n1-c1cc(Oc3ncccc3[N+](=O)[O-])c(Cl)cc1F)CCC2` [Compound 5-8] the “phytotoxicity rating SORHA” value [1] was 95, the “phytotoxicity rating ECHCG” value [2] was 85 and the “phytotoxicity rating SETVI” value [3] was 95. For the same molecule, the “phytotoxicity rating IPOHE” value [4] was 80, the “phytotoxicity rating CHEAL” value [5] was 100 and the “phytotoxicity rating DIGSA” value [6] was 100. For the same molecule, the “phytotoxicity rating AMARE” value [7] was 100, the “phytotoxicity rating CASOB” value [8] was 0 and the “phytotoxicity rating ABUTH” value [9] was 100. The “crop damage rating CORN” value [10] was 15, the “crop damage rating RICE” value [11] was 50 and the “crop damage rating SOY” value [12] was 50. For the same molecule, the “SORHA phytotoxicity rating (0-100)” value [13] was 0, the “ECHCG phytotoxicity rating (0-100)” value [14] was 0 and the “SETVI phytotoxicity rating (0-100)” value [15] was 10. For the same molecule, the “IPOHE phytotoxicity rating (0-100)” value [16] was 80, the “CHEAL phytotoxicity rating (0-100)” value [17] was 60 and the “DIGSA phytotoxicity rating (0-100)” value [18] was 0. For the same molecule, the “AMARE phytotoxicity rating (0-100)” value [19] was 40, the “CASOB phytotoxicity rating (0-100)” value [20] was 30 and the “ABUTH phytotoxicity rating (0-100)” value [21] was 100. The “CORN crop damage rating (0-100)” value [22] was 0, the “RICE crop damage rating (0-100)” value [23] was 0 and the “SOY crop damage rating (0-100)” value [24] was 20.
